Source: patent publication US12145911B2, “Inhibitors of cysteine proteases and methods of use thereof” (priority 2020, dated 2024)

What was measured:
229E Mpro = target: T1, 229E Mpro (Human coronavirus 229E, UniProt P0C6X1); experiment: 229E Mpro assay (Table 3); assay type: biochemical, Human Coronavirus (HCov) 229E
T1 construct: Mpro
Method: Compounds are assayed using standard methods to assess compound activity and IC50. […] The assay buffer contains 20 mM of Tris-HCl (pH 7.3), 100 mM of NaCl, 1 mM of EDTA, 5 mM of TCEP and 0.1% BSA.
The compounds are added to an assay plate.
IC50 values of compounds are calculated with the GraphPad Prism software using the nonlinear regression model of log(inhibitor) vs. response—Variable slope (four parameters). The inhibition activity is calculated using the formula below, IC50 values is calculated using the Inhibition % data. Inhibition %=[(Sample−Average ZPE)/(Average HPE−Average ZPE)]*100%^# • ^#HEP: Hundred percent effect controls. […] Containing enzyme+substrate, no compound. • Sample: Compound activity testing wells. Containing compound+enzyme+substrate. • BG: Compound background control wells. Containing compound+substrate, no enzyme.

HCoV 229E = HCoV 229E cytopathic effect (CPE) assay, CellTiter Glo; assay type: cell-based, Human Coronavirus (HCov) 229E; settings: protection from virus-induced CPE
Method: The antiviral activity of compounds is calculated based on the protection of the virus-induced CPE at each concentration normalized by the virus control.
Reagents and instruments used in this assay include luminescent cell viability assay kit CellTiter Glo (Promega) and Microplate Reader Synergy2 (BioTek).
Cytopathic effect (CPE) is measured by CellTiter Glo following the manufacturer's manual. The antiviral activity of compounds is calculated based on the protection of the virus-induced CPE at each concentration normalized by the virus control.

[1] = target: COVID-19 (nCoV-2019, SARS-CoV2) Mpro (Severe acute respiratory syndrome coronavirus 2, UniProt P0DTD1); experiment: SARS-CoV2 Mpro enzymatic assay; assay type: biochemical; settings: 25 nM Mpro, 25 μM substrate

T1 sequence (P0C6X1 2966-3267): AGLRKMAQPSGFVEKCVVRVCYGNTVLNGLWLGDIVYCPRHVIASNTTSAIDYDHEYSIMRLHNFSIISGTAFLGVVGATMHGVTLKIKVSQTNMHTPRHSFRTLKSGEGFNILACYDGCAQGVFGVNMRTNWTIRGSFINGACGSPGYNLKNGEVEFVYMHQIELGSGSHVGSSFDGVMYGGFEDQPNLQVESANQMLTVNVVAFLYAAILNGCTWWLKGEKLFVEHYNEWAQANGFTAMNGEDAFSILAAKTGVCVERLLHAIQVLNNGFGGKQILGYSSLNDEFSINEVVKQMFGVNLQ

| SMILES | EC50 (229E Mpro) [µM] | IC50 [1] [µM] | other results |
| --- | --- | --- | --- |
| COc1cc(Cl)c2[nH]c(C(=O)N[C@@H](CC3CC3)C(=O)N[C@H](C#N)C[C@@H]3CCNC3=O)cc2c1 [Compound 695, 7-chloro-N-[(1S)-2-[[(1S)-1-cyano-2-[(3S)-2-oxopyrrolidin-3-yl]ethyl]amino]-1-(cyclopropylmethyl)-2-oxo-ethyl]-5-methoxy-1H-indole-2-carboxamide] | < 2 |  |  |
| COc1cccc2[nH]c(C(=O)N[C@H](CC3CC3)C(=O)N[C@H](C#N)C[C@@H]3CCC(C)(C)NC3=O)cc12 (single isomer, unassigned; isomer 1) [787A (Isomer 1)] | 2 to 10 |  |  |
| CC(C)CC(NC(=O)c1nc2ncccc2[nH]1)C(=O)NC(C#N)CC1CCNC1=O (single isomer, unassigned) [130 (Isomer 1)] |  |  | CC50 (Cell viability): > 30 µM |
| Cc1cc(C(=O)N[C@H]2CC[C@@H]3SC[C@@H](C(=O)N[C@H](C#N)C[C@@H]4CCNC4=O)N3C2=O)no1 [Compound 459, N-((3R,6S,8aS)-3-(((S)-1-cyano-2-((S)-2-oxopyrrolidin-3-yl)ethyl)carbamoyl)-5-oxohexahydro-2H-thiazolo[3,2-a]pyridin-6-yl)-5-methylisoxazole-3-carboxamide] | > 30 |  |  |
| CC1(C)CC(C[C@@H](C#N)NC(=O)[C@H](CC2CC2)NC(=O)c2cc3cccc(Cl)c3[nH]2)C(=O)N1 (single isomer, unassigned) [1053 (Isomer 3)] | 2 to 10 |  |  |
| COc1cccc2[nH]c(C(=O)NC(CC(C)(F)F)C(=O)NC(C#N)CC3CCNC3=O)cc12 (single isomer, unassigned) [497 (Isomer 2)] | < 2 |  | EC50 (HCoV 229E): < 2 µM |
| N#C[C@H](C[C@@H]1CCNC1=O)NC(=O)[C@H](CC1CC1)NC(=O)c1cc2ccc(Cl)cc2[nH]1 [Compound 529, 6-chloro-N-[(1S)-2-[[(1S)-1-cyano-2-[(3S)-2-oxopyrrolidin-3-yl]ethyl]amino]-1-(cyclopropylmethyl)-2-oxo-ethyl]-1H-indole-2-carboxamide] | < 2 |  |  |
| N#C[C@H](C[C@@H]1CCNC1=O)NC(=O)[C@@H]1CS[C@H]2CC[C@H](NC(=O)OCc3ccccc3)C(=O)N21 [Compound 457, Benzyl((3R,6S,8aS)-3-(((S)-1-cyano-2-((S)-2-oxopyrrolidin-3-yl)ethyl)carbamoyl)-5-oxohexahydro-2H-thiazolo[3,2-a]pyridin-6-yl)carbamate] | > 30 |  |  |
| CC1(C)CCC(CC(C#N)NC(=O)[C@H](CC2CC2)NC(=O)c2cc3cccc(Cl)c3[nH]2)C(=O)N1 (single isomer, unassigned) [749A (Isomer 1)] |  | < 2 |  |
| CC1(C)CC(CC(C#N)NC(=O)C(CC2CC2)NC(=O)c2cc3cccc(Cl)c3[nH]2)C(=O)N1 (single isomer, unassigned) [1053 (Isomer 4)] | < 2 |  |  |
| N#C[C@H](C[C@@H]1CCNC1=O)NC(=O)[C@H](CC1CC1)NC(=O)c1cc2c(Cl)ccc(Cl)c2[nH]1 [Compound 691, 4,7-dichloro-N-[(1S)-2-[[(1S)-1-cyano-2-[(3S)-2-oxopyrrolidin-3-yl]ethyl]amino]-1-(cyclopropylmethyl)-2-oxo-ethyl]-1H-indole-2-carboxamide] | < 2 |  |  |
| COc1cccc2[nH]c(C(=O)N3CC4(C[C@H]3C(=O)N[C@H](C#N)C[C@@H]3CCCNC3=O)CC(F)(F)C4)cc12 (single isomer, unassigned) [723 (Isomer 2)] | < 2 | < 2 |  |
| COC(=O)NS(=O)(=O)n1nccc1C(=O)NC(CC1CC1)C(=O)NC(C#N)CC1CCCNC1=O (single isomer, unassigned) [787A (Isomer 2)] | 2 to 10 | < 2 |  |
| COc1cccc2[nH]c(C(=O)N3CC4(C[C@H]3C(=O)N[C@H](C#N)C[C@@H]3CCCNC3=O)CC(F)(F)C4)cc12 (single isomer, unassigned) [723 (Isomer 1)] | 10 to 30 | 10 to 30 |  |
| N#C[C@H](C[C@@H]1CCCNC1=O)NC(=O)[C@@H]1CC2(CN1C(=O)c1cc3cccc(Cl)c3[nH]1)CC(F)(F)C2 (single isomer, unassigned) [743 (Isomer 1)] | > 30 | > 30 |  |
| N#C[C@H](C[C@@H]1CCCNC1=O)NC(=O)[C@@H]1CC2(CN1C(=O)c1cc3cccc(Cl)c3[nH]1)CC(F)(F)C2 (single isomer, unassigned) [743 (Isomer 2)] | < 2 | < 2 |  |
| N#C[C@H](C[C@@H]1CCNC1=O)NC(=O)[C@H](CC1CC1)NC(=O)c1nc2c(Cl)cc(Cl)cc2[nH]1 [Compound 525, 4,6-dichloro-N-[(1S)-2-[[(1S)-1-cyano-2-[(3S)-2-oxopyrrolidin-3-yl]ethyl]amino]-1-(cyclopropylmethyl)-2-oxo-ethyl]-1H-benzimidazole-2-carboxamide] | < 2 |  |  |
